Laboratory results as given in patent US20260265238A1, “COMPOUNDS AND PHARMACEUTICAL COMPOSITIONS THAT DEGRADE SWI/SNF-RELATED MATRIX-ASSOCIATED ACTIN-DEPENDENT REGULATOR OF CHROMATIN SUBFAMILY A” (Plexium, Inc., priority 2023, published 2026).

Legend:
[1] = target: T1, SMARCA2-HiBiT HeLa cells (protein which is expressed from the SMARCA2 gene) (Homo sapiens, UniProt P51531); test: SMARCA2 degradation assay (HiBiT-fusion HeLa cell line, 24 h, luminescence); type: cell-based
T1 construct: protein which is expressed from the SMARCA2 and SMARCA4 genes; host or cells: HeLa (SMARCA2-HiBiT engineered line)
Procedure, shortened: (§1)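 HeLa cells carrying HiBiT-tagged SMARCA2 or SMARCA4 were seeded at 8,000 cells/well, allowed to attach overnight at 37° C., then given compounds in a 10-point dilution series (typically 10 μM to 300 pM) for 24 hours at 37° C. Remaining tagged protein was read by HiBiT lytic luminescence, and DC50s came from dose-response curves.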

[2] = target: T2, SMARCA4-HiBiT HeLa cells (protein which is expressed from the SMARCA4 gene) (Homo sapiens, UniProt P51532); test: SMARCA4 degradation assay (HiBiT-fusion HeLa cell line, 24 h, luminescence); type: cell-based
T2 construct: protein which is expressed from the SMARCA2 and SMARCA4 genes; host or cells: HeLa (SMARCA4-HiBiT engineered line)
Procedure, shortened: as §1

T1 sequence (P51531 whole entry, the tested form may be a part): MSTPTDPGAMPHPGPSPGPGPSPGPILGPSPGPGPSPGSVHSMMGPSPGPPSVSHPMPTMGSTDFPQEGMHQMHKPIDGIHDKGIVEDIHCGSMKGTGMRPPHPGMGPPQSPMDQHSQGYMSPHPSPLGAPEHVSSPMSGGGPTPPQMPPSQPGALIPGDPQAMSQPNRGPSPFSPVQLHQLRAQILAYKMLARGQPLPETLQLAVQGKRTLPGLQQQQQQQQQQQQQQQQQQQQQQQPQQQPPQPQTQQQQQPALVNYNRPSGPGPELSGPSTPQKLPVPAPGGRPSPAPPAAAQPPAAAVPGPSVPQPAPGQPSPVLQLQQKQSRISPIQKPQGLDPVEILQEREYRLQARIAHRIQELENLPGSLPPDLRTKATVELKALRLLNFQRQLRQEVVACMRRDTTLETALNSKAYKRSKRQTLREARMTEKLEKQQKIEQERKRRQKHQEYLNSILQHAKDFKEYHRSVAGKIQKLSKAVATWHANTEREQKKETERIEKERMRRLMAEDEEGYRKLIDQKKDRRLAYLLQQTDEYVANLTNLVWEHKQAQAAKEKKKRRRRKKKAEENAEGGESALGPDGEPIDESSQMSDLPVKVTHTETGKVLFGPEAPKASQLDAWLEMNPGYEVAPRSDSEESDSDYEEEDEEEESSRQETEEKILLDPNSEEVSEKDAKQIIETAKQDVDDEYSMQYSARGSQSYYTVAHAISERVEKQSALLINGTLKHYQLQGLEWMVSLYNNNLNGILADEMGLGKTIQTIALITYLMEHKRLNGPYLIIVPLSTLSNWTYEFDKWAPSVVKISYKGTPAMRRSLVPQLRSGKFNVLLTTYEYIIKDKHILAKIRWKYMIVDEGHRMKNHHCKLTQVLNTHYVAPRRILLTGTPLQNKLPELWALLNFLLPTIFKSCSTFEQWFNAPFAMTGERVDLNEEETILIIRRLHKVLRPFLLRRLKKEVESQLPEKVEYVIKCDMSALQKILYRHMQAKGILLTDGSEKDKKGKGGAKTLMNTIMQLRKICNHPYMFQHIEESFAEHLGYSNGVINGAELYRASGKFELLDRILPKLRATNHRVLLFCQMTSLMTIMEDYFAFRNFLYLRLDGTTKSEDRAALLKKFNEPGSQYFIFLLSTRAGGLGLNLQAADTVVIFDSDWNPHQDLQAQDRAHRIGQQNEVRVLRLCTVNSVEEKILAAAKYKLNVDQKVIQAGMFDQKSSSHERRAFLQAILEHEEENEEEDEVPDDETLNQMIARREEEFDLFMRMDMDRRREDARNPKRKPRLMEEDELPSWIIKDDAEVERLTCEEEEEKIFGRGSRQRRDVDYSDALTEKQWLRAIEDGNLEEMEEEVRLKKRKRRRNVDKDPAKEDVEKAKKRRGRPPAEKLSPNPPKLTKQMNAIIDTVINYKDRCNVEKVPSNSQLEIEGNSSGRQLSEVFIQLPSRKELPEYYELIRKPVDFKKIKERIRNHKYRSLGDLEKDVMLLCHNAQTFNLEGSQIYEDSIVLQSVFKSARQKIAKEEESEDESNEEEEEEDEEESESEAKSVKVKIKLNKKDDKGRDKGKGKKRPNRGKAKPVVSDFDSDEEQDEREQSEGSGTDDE
T2 sequence (P51532 whole entry, the tested form may be a part): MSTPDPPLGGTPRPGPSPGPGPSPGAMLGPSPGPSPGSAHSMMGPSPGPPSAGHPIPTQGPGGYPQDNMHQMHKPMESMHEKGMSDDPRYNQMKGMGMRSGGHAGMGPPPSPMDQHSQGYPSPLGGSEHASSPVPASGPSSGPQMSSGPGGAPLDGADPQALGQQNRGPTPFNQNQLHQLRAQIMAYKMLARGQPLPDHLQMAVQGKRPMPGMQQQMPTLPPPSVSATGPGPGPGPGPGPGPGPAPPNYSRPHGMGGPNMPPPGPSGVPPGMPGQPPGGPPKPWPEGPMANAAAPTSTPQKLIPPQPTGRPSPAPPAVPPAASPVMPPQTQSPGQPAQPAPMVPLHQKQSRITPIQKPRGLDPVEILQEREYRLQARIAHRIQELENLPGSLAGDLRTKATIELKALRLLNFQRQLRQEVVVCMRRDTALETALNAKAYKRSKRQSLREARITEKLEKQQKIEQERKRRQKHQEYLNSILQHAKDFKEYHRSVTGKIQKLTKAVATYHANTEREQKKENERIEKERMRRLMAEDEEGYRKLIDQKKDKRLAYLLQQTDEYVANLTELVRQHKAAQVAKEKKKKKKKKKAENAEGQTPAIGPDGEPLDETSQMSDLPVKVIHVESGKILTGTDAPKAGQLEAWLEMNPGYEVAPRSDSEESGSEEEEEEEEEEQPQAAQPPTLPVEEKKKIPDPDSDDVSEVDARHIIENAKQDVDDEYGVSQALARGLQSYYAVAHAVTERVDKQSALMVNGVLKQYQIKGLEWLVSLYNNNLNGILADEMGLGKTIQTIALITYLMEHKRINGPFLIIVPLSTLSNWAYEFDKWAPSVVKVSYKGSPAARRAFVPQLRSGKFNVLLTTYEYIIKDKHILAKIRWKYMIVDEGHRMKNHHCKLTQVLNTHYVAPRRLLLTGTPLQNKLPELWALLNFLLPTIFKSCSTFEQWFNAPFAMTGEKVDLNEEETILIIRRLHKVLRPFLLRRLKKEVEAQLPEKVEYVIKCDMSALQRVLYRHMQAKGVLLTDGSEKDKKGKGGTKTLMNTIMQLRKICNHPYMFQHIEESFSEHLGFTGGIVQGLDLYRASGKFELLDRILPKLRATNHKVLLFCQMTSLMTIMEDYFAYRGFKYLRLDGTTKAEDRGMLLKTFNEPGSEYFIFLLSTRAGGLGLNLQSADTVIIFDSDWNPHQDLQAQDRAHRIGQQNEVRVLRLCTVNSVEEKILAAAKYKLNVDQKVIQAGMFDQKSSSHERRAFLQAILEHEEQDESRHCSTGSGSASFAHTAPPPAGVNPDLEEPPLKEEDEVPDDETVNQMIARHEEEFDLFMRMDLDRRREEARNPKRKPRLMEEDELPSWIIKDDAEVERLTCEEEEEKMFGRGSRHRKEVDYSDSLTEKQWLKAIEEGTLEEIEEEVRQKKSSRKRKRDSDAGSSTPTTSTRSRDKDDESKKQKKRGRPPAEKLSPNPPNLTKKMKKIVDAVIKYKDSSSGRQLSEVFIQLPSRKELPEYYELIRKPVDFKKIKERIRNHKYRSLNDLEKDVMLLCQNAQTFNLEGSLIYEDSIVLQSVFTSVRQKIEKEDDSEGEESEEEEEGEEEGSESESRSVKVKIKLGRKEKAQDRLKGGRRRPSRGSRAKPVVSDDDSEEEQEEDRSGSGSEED

Row | SMILES | DC50 [1] | SMARCA2 % Degradation @ 1 μM [1] | DC50 [2] | inhibition at 1 µM [2]
1 | CC(C)(C)OC(=O)NC/C=C/c1nccc(N2CCCN(c3cc(-c4ccccc4O)nnc3N)CC2)n1 [Compound P-114, tert-butyl (E)-(3-(4-(4-(3-amino-6-(2-hydroxyphenyl)pyridazin-4-yl)-1,4-diazepan-1-yl)pyrimidin-2-yl)allyl)carbamate] | 50 to 500 nM | +++ (+++=>70%) | 50 to 500 nM | 30 to 70%
2 | Cc1nn2ccn(CC#Cc3nccc(N4CCCN(c5cc(-c6ccccc6O)nnc5N)CC4)n3)c(=O)c2c1C [Compound P-115, 5-(3-(4-(4-(3-amino-6-(2-hydroxyphenyl)pyridazin-4-yl)-1,4-diazepan-1-yl)pyrimidin-2-yl)prop-2-yn-1-yl)-2,3-dimethylpyrazolo[1,5-a]pyrazin-4(5H)-one] | 50 to 500 nM | +++ (+++=>70%) | 50 to 500 nM | 30 to 70%
3 | Nc1nnc(-c2ccccc2O)cc1N1CCCN(c2ccnc(C#CCn3ncc4ccncc43)n2)CC1 [Compound P-116, 2-(5-(4-(2-(3-(1H-pyrazolo[3,4-c]pyridin-1-yl)prop-1-yn-1-yl)pyrimidin-4-yl)-1,4-diazepan-1-yl)-6-aminopyridazin-3-yl)phenol] | 50 to 500 nM | +++ (+++=>70%) | 50 to 500 nM | 30 to 70%
4 | Nc1nnc(-c2ccccc2O)cc1N1CCN(c2ccnc(C#CCNC(=O)c3cnn4cccc(F)c34)n2)CC1 [Compound P-117, N-(3-(4-(4-(3-amino-6-(2-hydroxyphenyl)pyridazin-4-yl)piperazin-1-yl)pyrimidin-2-yl)prop-2-yn-1-yl)-4-fluoropyrazolo[1,5-a]pyridine-3-carboxamide] | 50 to 500 nM | ++ (++=30-70%) | 50 to 500 nM | 30 to 70%
5 | Nc1nnc(-c2ccccc2O)cc1N1CCN(c2ccnc(C#CCNC(=O)c3nc4ccccc4s3)n2)CC1 [Compound P-118, N-(3-(4-(4-(3-amino-6-(2-hydroxyphenyl)pyridazin-4-yl)piperazin-1-yl)pyrimidin-2-yl)prop-2-yn-1-yl)benzo[d]thiazole-2-carboxamide] | 50 to 500 nM | ++ (++=30-70%) | 50 to 500 nM | 30 to 70%
6 | Nc1nnc(-c2ccccc2O)cc1N1CC2CCC(C1)N2c1ccnc(C#CCNC(=O)c2cc3ncccn3n2)n1 [Compound P-119, N-(3-(4-(3-(3-amino-6-(2-hydroxyphenyl)pyridazin-4-yl)-3,8-diazabicyclo[3.2.1]octan-8-yl)pyrimidin-2-yl)prop-2-yn-1-yl)pyrazolo[1,5-a]pyrimidine-2-carboxamide] | > 5000 nM | + (+=<30%) | 500 to 5000 nM | < 30%
7 | Nc1nnc(-c2ccccc2O)cc1N1CCCN(c2ccnc(C#CCNc3cc4ncccn4n3)n2)CC1 [Compound P-120, 2-(6-amino-5-(4-(2-(3-(pyrazolo[1,5-a]pyrimidin-2-ylamino)prop-1-yn-1-yl)pyrimidin-4-yl)-1,4-diazepan-1-yl)pyridazin-3-yl)phenol] | 500 to 5000 nM | ++ (++=30-70%) | 500 to 5000 nM | 30 to 70%
8 | CC(C)(C)OC(=O)NCC#Cc1nccc(N2CCCN(c3cc(-c4ccccc4O)nnc3N)CC2)n1 [Compound P-121, tert-butyl (3-(4-(4-(3-amino-6-(2-hydroxyphenyl)pyridazin-4-yl)-1,4-diazepan-1-yl)pyrimidin-2-yl)prop-2-yn-1-yl)carbamate] | 50 to 500 nM | +++ (+++=>70%) | 50 to 500 nM | > 70%
9 | CC(=O)NCC#Cc1nccc(N2CCCN(c3cc(-c4ccccc4O)nnc3N)CC2)n1 [Compound P-122, N-(3-(4-(4-(3-amino-6-(2-hydroxyphenyl)pyridazin-4-yl)-1,4-diazepan-1-yl)pyrimidin-2-yl)prop-2-yn-1-yl)acetamide] | 500 to 5000 nM | ++ (++=30-70%) | 500 to 5000 nM | < 30%
